Reference: patent US11318157B2, “6-6 bicyclic aromatic ring substituted nucleoside analogues for use as PRMT5 inhibitors” (Janssen Pharmaceutica NV, priority 2015, dated 2022)
Like-named read-outs stand apart in the source and are kept apart here.

Experiments:
[1] = test system: nuclear symmetric Arginine dimethylation in A549 cells; experiment: PD assay (assay 2): inhibition of nuclear symmetric Arginine dimethylation (SYM10 immunohistochemistry), 48 h; type: cell-based; conditions: for IC50: Homo sapiens
Summary of the method: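 Cells seeded at 400/well overnight, then treated 48 h at 37 °C, final DMSO 0.2%. Fixed and stained with SYM10 antibody plus Alexa 488 secondary, Hoechst and CellMask, then imaged on Opera. Normalized to DMSO (high) and 10 μM reference compound (low); averaged pIC50 reported.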

PRMT5-MEP50 enzyme [2] = molecular target: T1, PRMT5-MEP50 enzyme (Homo sapiens, UniProt O14744); experiment: In vitro assay 1a: high throughput mass spectrometer assay of SAH formation, 10 nM enzyme, 60 min; type: biochemical; conditions: averaged values, PRMT5-MEP50, 10 nM enzyme
T1 construct: One virus expresses full length human PRMT5 with Flag-tag at N-terminus; Flag (N); purchased Charles River (Argenta); host or cells: insect cells (Sf9), baculovirus co-infection
Summary of the method: (§1)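 SAH product measured by RapidFire mass spectrometry after formic acid stop; IC50 from 11-point 1:2 dilutions, four-parameter fit. Reactions at 30 °C in 20 mM Tris pH 8.5 with 1 μM SAM, 0.3 μM H2A: assay 1a 10 nM PRMT5-MEP50, 60 min; assay 1b 1.25 nM, 120 min.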

PRMT5-MEP50 enzyme [3] = molecular target: T1, PRMT5-MEP50 enzyme; experiment: In vitro assay 1b: high throughput mass spectrometer assay of SAH formation, 1.25 nM enzyme, 120 min; type: biochemical
Summary of the method: as §1

[4] = A549, averaged values, PD assay, A549 cells, symmetric Arginine dimethylation, read-out: pIC50 Assay 2 (converted)
[5] = read-out: pIC50 Assay 1a (converted)
[6] = averaged values, PRMT5-MEP50, 1.25 nM enzyme, 120 min, read-out: pIC50 Assay 1b (converted)
[7] = A549, read-out: pIC50 Assay 2 (converted)

T1 sequence (O14744 whole entry): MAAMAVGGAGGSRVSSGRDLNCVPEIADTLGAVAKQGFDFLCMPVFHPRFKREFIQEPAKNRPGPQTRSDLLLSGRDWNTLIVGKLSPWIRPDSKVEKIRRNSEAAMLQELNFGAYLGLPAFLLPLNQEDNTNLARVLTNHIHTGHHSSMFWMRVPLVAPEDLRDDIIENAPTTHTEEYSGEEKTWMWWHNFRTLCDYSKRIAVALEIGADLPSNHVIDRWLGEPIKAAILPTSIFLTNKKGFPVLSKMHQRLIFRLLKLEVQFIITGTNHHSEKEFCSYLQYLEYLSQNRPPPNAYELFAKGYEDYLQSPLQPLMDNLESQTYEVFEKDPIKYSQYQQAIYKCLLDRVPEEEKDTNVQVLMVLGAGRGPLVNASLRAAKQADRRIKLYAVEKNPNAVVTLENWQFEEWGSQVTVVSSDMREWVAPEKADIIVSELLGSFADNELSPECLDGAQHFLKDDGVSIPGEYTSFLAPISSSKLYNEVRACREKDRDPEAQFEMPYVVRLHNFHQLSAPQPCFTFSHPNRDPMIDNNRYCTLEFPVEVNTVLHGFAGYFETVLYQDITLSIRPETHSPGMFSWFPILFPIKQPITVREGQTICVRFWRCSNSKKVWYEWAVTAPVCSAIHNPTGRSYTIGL
T1 sequence (Q9BQA1 whole entry partner): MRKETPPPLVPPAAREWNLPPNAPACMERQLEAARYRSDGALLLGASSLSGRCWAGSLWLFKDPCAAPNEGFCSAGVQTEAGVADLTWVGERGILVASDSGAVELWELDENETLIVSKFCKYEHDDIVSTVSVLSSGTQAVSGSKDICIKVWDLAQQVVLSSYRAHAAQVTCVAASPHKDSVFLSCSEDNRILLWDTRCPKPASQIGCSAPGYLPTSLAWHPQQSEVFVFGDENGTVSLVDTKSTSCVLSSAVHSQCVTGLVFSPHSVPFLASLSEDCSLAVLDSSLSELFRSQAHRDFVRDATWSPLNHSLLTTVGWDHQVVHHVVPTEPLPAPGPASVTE

Row | Structure (SMILES) | IC50 [1, 4] | IC50 (PRMT5-MEP50 enzyme [2]; [5]) | IC50 (PRMT5-MEP50 enzyme [3]; [6]) | IC50 (PRMT5-MEP50 enzyme [2]; pIC50 Assay 1a) | IC50 (PRMT5-MEP50 enzyme [3]) | pIC50 Assay 2 ([1]; averaged values, PD assay, A549 cells, symmetric Arginine dimethylation) | IC50 [1, 7]
1 | CC(C)C(=O)O[C@@H]1[C@H](OC(=O)C(C)C)[C@@H](COc2ccc3cc(Br)cnc3c2)O[C@H]1n1ccc2c(N)ncnc21 [Compound 73] | 100 nM | > 10000 nM | > 100000 nM |  |  |  | 
2 | COc1cnc2cc(OC[C@H]3O[C@@H](n4ccc5c(N)ncnc54)[C@H](O)[C@@H]3O)ccc2c1 [Compound 26] | ~251 nM | 63.1 nM | 200 nM |  |  |  | 
3 | CNc1ccc2ccc(OC[C@H]3O[C@@H](n4ccc5c(Cl)ncnc54)[C@H](O)[C@@H]3O)cc2n1 [Compound 136] | 501 nM | 7.94 nM | 50.1 nM |  |  |  | 
4 | CNc1ccc2ccc(CC[C@H]3O[C@@H](n4ccc5cncnc54)[C@H](O)[C@@H]3O)cc2n1 [Compound 169] | 50.1 nM | 10 nM | 63.1 nM |  |  |  | 
5 | O[C@@H]1[C@@H](CCc2ccc3ccc(NCC4CC4)nc3c2)C[C@@H](n2ccc3c(Cl)ncnc32)[C@@H]1O [Compound 115] | ~5.5 nM | 10 nM | 5.01 nM |  |  |  | 
6 | Nc1ncnc2c1ccn2[C@@H]1O[C@H](CNc2ccc3cccnc3c2)[C@@H](O)[C@H]1O [Compound 49] | 10 nM | 3.98 nM | 10 nM |  |  |  | 
7 | CN(C)Cc1ccc2ccc(OC[C@H]3O[C@@H](n4ccc5c(N)ncnc54)[C@H](O)[C@@H]3O)cc2n1 [Compound 97] | > 10000 nM | > 10000 nM | 15800 nM |  |  |  | 
8 | Nc1ncc2ccc(CC[C@H]3C[C@@H](n4ccc5c(Cl)ncnc54)[C@H](O)[C@@H]3O)cc2n1 [Compound 215] | 1260 nM | 7.94 nM | 39.8 nM |  |  |  | 
9 | Nc1ncnc2c1ccn2[C@@H]1O[C@H](COc2ccc3ccc(O)nc3c2)[C@@H](O)[C@H]1O [Compound 18] | ~10000 nM | 79.4 nM | 316 nM |  |  |  | 
10 | Nc1ncnc2c1ccn2[C@@H]1O[C@H](COc2ccc3c(Cl)ccnc3c2)[C@@H](O)[C@H]1O [Compound 33] | 501 nM | 158 nM | 794 nM |  |  |  | 
11 | Nc1ncnc2c1ccn2[C@@H]1C[C@H](/C=C/c2ccc3cccnc3c2)[C@@H](O)[C@H]1O [Compound 55] | ~51.3 nM |  |  | 7.94 nM | 31.6 nM |  | 
12 | Nc1ncnc2c1ccn2[C@@H]1O[C@H](COc2cccc3cnccc23)[C@@H](O)[C@H]1O [Compound 6] | > 10000 nM | 3160 nM | 5010 nM |  |  |  | 
13 | Nc1ncnc2c1ccn2[C@@H]1O[C@H](COc2ccc3cc(Br)cnc3c2)[C@@H](O)[C@H]1O [Compound 2] | 39.8 nM | 7.94 nM | 25.1 nM |  |  |  | 
14 | Nc1ncnc2c1ccn2[C@@H]1O[C@H](COc2cc3ncc(Br)cc3cc2C(F)(F)F)[C@@H](O)[C@H]1O [Compound 96] | 200 nM | 200 nM | 501 nM |  |  |  | 
15 | Cc1ccnc2cc(OC[C@H]3O[C@@H](n4ccc5c(N)ncnc54)[C@H](O)[C@@H]3O)ccc12 [Compound 32] | 501 nM | 39.8 nM | 126 nM |  |  |  | 
16 | CC(Oc1ccc2cccnc2c1)[C@H]1O[C@@H](n2ccc3c(N)ncnc32)[C@H](O)[C@@H]1O (single isomer, unassigned) [Compound 68] |  | 2510 nM | > 100000 nM |  |  | ~5.14 | 
17 | CC(C)(C)Nc1ccc2ccc(CC[C@H]3C[C@@H](n4ccc5c(N)ncnc54)[C@H](O)[C@@H]3O)cc2n1 [Compound 150] | 31.6 nM | 1 nM | 15.8 nM |  |  |  | 
18 | Nc1ncnc2c1ccn2[C@@H]1O[C@H](CCc2ccc3ccncc3c2)[C@@H](O)[C@H]1O [Compound 103] | 7940 nM | 398 nM | 1260 nM |  |  |  | 
19 | CNc1ccc2ccc(CC[C@H]3C[C@@H](n4ccc5c(N)ncnc54)[C@H](O)[C@@H]3O)cc2n1 [Compound 126] |  | 0.501 nM | 2.51 nM |  |  |  | 0.316 nM
20 | Nc1ncnc2c1ccn2[C@@H]1O[C@H](CCc2ccc3ccc(NCc4ccc(Cl)cc4)nc3c2)[C@@H](O)[C@H]1O [Compound 135] | ~2.82 nM | 1 nM | 6.31 nM |  |  |  | 
21 | Nc1ncnc2c1ccn2[C@@H]1O[C@H](COc2ccc3ccncc3c2)[C@@H](O)[C@H]1O [Compound 13] | 15800 nM | 794 nM | 2000 nM |  |  |  | 
22 | Nc1ncnc2c1ccn2[C@@H]1O[C@H](COc2ccc3cccnc3c2Cl)[C@@H](O)[C@H]1O [Compound 41] | > 10000 nM | 6310 nM | 10000 nM |  |  |  | 
23 | CNc1ccc2ccc(CC[C@H]3O[C@@H](n4ccc5c(N)ncnc54)[C@H](O)[C@@H]3O)cc2n1 [Compound 137] | 6.31 nM | 1.58 nM | 20 nM |  |  |  | 

Row | Structure (SMILES) | IC50 [1, 4] | IC50 (PRMT5-MEP50 enzyme [2]; [5]) | IC50 (PRMT5-MEP50 enzyme [3]; [6]) | IC50 (PRMT5-MEP50 enzyme [2]; pIC50 Assay 1a) | IC50 (PRMT5-MEP50 enzyme [3]) | pIC50 Assay 2 ([1]; averaged values, PD assay, A549 cells, symmetric Arginine dimethylation) | IC50 [1, 7]
24 | CC(C)C(=O)O[C@@H]1[C@H](OC(=O)C(C)C)[C@@H](COc2ccc3cccnc3c2)O[C@H]1n1ccc2c(N)ncnc21 [Compound 89] | 63.1 nM | > 10000 nM | 31600 nM |  |  |  | 
25 | CC(C)Cc1cnc2cc(OC[C@H]3O[C@@H](n4ccc5c(N)ncnc54)[C@H](O)[C@@H]3O)ccc2c1 [Compound 112] | 398 nM | 50.1 nM | 200 nM |  |  |  | 
26 | NC(=O)c1ccc2ccc(OC[C@H]3O[C@@H](n4ccc5c(N)ncnc54)[C@H](O)[C@@H]3O)cc2n1 [Compound 245] | > 20000 nM | 2000 nM | 3160 nM |  |  |  | 
27 | Nc1ncnc2c1ccn2[C@@H]1C[C@H](CCc2ccc3ccc(NCc4ccc(Cl)cc4)nc3c2)[C@@H](O)[C@H]1O [Compound 124] | 0.631 nM | 2 nM | 5.01 nM |  |  |  | 
28 | COc1cc2c(Cl)c(C#N)cnc2cc1OC[C@H]1O[C@@H](n2ccc3c(N)ncnc32)[C@H](O)[C@@H]1O [Compound 30] | > 10000 nM | > 10000 nM | 39800 nM |  |  |  | 
29 | CNc1ccc2ccc(CC[C@H]3C[C@@H](n4ccc5c(C)ncnc54)[C@H](O)[C@@H]3O)cc2n1 [Compound 176] | 3.16 nM | 0.501 nM | 3.98 nM |  |  |  | 
30 | Cc1cnc2cc(OC[C@H]3O[C@@H](n4ccc5c(N)ncnc54)[C@H](O)[C@@H]3O)ccc2c1 [Compound 217] | 39.8 nM | 5.01 nM | 20 nM |  |  |  | 
31 | Nc1ncnc2c1ccn2[C@@H]1C[C@H](CCc2ccc3cc(Br)cnc3c2)[C@@H](O)[C@H]1O [Compound 129] |  | 2.51 nM | 15.8 nM |  |  |  | 12.6 nM
32 | Nc1ncnc2c1ccn2[C@@H]1O[C@H](COc2ccc3cccnc3c2I)[C@@H](O)[C@H]1O [Compound 40] | ~12000 nM | 2510 nM | 1580 nM |  |  |  | 
33 | COc1ncnc2c1ccn2[C@@H]1O[C@H](COc2ccc3ccc(N)nc3c2)[C@@H](O)[C@H]1O [Compound 187] | 25.1 nM | 10 nM | 79.4 nM |  |  |  | 
34 | N#Cc1cnc2cc(OC[C@H]3O[C@@H](n4ccc5c(N)ncnc54)[C@H](O)[C@@H]3O)ccc2c1N [Compound 29] | 15800 nM | 501 nM | 1260 nM |  |  |  | 
35 | Nc1ncnc2c1ccn2[C@@H]1O[C@H](COc2ccc3ccc(C(F)(F)F)nc3c2)[C@@H](O)[C@H]1O [Compound 22] | ~17800 nM | 6310 nM | 25100 nM |  |  |  | 
36 | Nc1ncnc2c1ccn2[C@@H]1O[C@H](COc2cccc3cccnc23)[C@@H](O)[C@H]1O [Compound 8] | > 10000 nM | 6310 nM | 12600 nM |  |  |  | 
37 | COc1ccc2ccc(OC[C@H]3O[C@@H](n4ccc5c(N)ncnc54)[C@H](O)[C@@H]3O)cc2n1 [Compound 19] | > 20000 nM | 1580 nM | 3160 nM |  |  |  | 
38 | Nc1ccc2ccc(CC[C@H]3O[C@@H](n4ccc5c(Cl)ncnc54)[C@H](O)[C@@H]3O)cc2n1 [Compound 133] | 6.31 nM | 0.631 nM | 6.31 nM |  |  |  | 
39 | Nc1ncnc2c1ccn2[C@@H]1O[C@H](COc2ccc3ccc(NCC4CC4)nc3c2)[C@@H](O)[C@H]1O [Compound 142] | 15.8 nM | 1.26 nM | 7.94 nM |  |  |  | 
40 | CNC(=O)c1cnc2cc(OC[C@H]3O[C@@H](n4ccc5c(N)ncnc54)[C@H](O)[C@@H]3O)ccc2c1 [Compound 189] | 251 nM | 316 nM | 1000 nM |  |  |  | 
41 | Nc1ncnc2c1ccn2[C@@H]1C[C@H](CCc2ccc3cc(Cl)cnc3c2)[C@@H](O)[C@H]1O [Compound 58] | 39.8 nM | 12.6 nM | 20 nM |  |  |  | 
42 | Nc1ncnc2c1ccn2[C@@H]1O[C@H](CNc2ccc3cc(Cl)cnc3c2)[C@@H](O)[C@H]1O [Compound 50] | 25.1 nM | 10 nM | 7.94 nM |  |  |  | 
43 | CC(C)c1cnc2cc(OC[C@H]3O[C@@H](n4ccc5c(N)ncnc54)[C@H](O)[C@@H]3O)ccc2c1 [Compound 214] | 398 nM | 31.6 nM | 100 nM |  |  |  | 
44 | Nc1ncnc2c1ccn2[C@@H]1C[C@H](OCc2ccc3cccnc3c2)[C@@H](O)[C@H]1O [Compound 64] | ~1070 nM |  |  | 126 nM | 794 nM |  | 
45 | Nc1ncnc2c1ccn2[C@@H]1C[C@H](CCc2ccc3ccc(NCC(F)F)nc3c2)[C@@H](O)[C@H]1O [Compound 75] | 1.58 nM | 0.251 nM | 0.501 nM |  |  |  | 
46 | Nc1ncnc2c1ccn2[C@@H]1O[C@H](COc2ccc3cc(F)cnc3c2)[C@@H](O)[C@H]1O [Compound 24] | 794 nM | 39.8 nM | 126 nM |  |  |  | 
